Test results as given in PMC9855970, “Cysteine Biosynthesis in Campylobacter jejuni: Substrate Specificity of CysM and the Dualism of Sulfide” (Biomolecules, 2022).

Biological target: T1, CysM (Cj0912) (Campylobacter jejuni, UniProt P71128)
T1 sequence (P71128 1-299): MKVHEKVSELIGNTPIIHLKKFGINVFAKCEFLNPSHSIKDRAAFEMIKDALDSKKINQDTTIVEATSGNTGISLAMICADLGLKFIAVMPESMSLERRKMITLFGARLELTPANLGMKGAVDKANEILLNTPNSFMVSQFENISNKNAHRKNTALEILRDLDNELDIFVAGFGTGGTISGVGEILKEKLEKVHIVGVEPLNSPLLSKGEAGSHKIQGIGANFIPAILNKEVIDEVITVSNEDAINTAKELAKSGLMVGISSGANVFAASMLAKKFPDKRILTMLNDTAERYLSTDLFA
Assay: UV-Vis absorbance at […] nm of purified enzyme
Assay type: binding
Settings: 100 mM Tris-HCl pH 7.4, 50 mM NaCl; co-purified, covalent internal Schiff base with lysine

## Cc1ncc(COP(=O)(O)O)c(C=O)c1O [PLP, pyridoxal 5′-phosphate]
  UV-Vis absorbance at 412 nm of purified enzyme: Cj0912 purified with the PLP cofactor in situ
